For one data set, the target named is CDK8/cyclin C (Homo sapiens, UniProt P49336). In words: SelectScreen kinase profiling, IC50. It counts as biochemical. As to conditions: read-out: IC50 against CDK8/cyclin C. The source says:
(§1) MK256 was synthesized in house. The kinase profiling of MK256 against various targets was done using the SelectScreen Kinase Profiling Services provided by ThermoFisher Scientific (Walham WA, USA). https://www.thermofisher.com/us/en/home/products-and-services/services/custom-services/screening-and-profiling-services/selectscreen-profiling-service/selectscreen-kinase-profiling-service.html.

In another data set the target is CDK9 (Homo sapiens, UniProt P50750). In words: SelectScreen kinase profiling, IC50. It counts as biochemical.
Chain of CDK9 (P50750 whole entry): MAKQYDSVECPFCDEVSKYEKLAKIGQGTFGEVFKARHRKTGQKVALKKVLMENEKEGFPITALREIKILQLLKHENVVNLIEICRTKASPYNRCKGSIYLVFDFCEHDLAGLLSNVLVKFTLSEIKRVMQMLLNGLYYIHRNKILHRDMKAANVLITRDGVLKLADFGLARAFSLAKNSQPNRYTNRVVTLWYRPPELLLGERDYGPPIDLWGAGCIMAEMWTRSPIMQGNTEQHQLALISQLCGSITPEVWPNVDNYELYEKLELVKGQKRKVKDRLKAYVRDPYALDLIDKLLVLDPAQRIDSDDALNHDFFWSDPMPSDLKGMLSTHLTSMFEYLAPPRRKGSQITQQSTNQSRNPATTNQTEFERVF
Chain of CDK9 (O60563 whole entry partner): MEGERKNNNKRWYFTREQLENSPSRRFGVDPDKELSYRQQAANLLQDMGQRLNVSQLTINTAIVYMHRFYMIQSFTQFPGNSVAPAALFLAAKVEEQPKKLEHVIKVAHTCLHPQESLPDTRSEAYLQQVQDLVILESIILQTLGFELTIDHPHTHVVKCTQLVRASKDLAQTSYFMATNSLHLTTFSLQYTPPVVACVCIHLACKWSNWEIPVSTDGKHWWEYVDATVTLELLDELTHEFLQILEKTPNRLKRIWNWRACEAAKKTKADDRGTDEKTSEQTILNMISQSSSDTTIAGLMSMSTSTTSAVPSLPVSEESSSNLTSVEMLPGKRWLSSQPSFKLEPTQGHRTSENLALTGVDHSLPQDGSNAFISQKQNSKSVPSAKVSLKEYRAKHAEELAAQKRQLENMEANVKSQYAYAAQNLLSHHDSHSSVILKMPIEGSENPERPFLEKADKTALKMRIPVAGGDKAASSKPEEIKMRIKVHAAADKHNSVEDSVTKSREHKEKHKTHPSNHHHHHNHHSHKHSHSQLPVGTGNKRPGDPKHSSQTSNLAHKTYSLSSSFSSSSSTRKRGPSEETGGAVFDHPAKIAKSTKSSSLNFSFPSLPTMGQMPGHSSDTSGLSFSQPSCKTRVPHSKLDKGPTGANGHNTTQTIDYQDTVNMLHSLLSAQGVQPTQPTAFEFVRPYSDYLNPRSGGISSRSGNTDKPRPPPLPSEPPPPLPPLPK
Source text: as §1

The target of another data set is CDK19/cyclin C (Homo sapiens, UniProt Q9BWU1). In words: SelectScreen kinase profiling, IC50. To be noted: read-out: IC50 against CDK19/cyclin C. In kind it is biochemical.
Chain of CDK19/cyclin C (Q9BWU1 whole entry): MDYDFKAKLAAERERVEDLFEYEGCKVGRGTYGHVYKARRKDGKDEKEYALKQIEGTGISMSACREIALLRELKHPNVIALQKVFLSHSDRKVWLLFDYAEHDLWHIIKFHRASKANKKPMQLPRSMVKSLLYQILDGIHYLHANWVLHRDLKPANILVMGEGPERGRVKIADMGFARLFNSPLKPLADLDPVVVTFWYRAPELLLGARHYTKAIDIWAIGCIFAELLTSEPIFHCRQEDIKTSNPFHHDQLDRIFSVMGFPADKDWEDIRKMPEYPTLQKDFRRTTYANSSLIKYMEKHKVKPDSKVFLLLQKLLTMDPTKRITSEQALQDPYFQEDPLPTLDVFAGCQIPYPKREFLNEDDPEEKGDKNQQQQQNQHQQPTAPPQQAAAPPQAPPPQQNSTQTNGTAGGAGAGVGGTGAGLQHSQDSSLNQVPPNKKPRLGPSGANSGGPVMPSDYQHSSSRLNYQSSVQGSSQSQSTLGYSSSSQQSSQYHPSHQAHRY
Chain of CDK19/cyclin C (P24863 whole entry partner): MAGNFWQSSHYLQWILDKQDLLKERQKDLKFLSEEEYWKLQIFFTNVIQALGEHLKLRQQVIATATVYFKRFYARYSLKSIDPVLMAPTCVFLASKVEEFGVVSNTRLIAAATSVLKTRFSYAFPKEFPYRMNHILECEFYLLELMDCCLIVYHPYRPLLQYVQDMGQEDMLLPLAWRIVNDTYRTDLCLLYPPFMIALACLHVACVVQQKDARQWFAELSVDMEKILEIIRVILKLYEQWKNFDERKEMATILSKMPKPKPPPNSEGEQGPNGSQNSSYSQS
Source text: as §1

A short description of data set [1]: Histological analysis (H&E) of major organs after 21 days treatment. In kind it is in vivo, mice. To be noted: 100 mg/kg, q.d., oral. On the procedure:
To evaluate the behavior of MK256 in vivo we did a full pharmacokinetics (PK) analysis of MK256 in mice. […] In the MOLM-14 xenograft model, we treated mice with 10 mg/kg, 50 mg/kg and 100 mg/kg of MK256 for 6 hrs, after which tumors from each treatment group were harvested and processed for western blotting analysis. […] We also performed a histological analysis of the major organs (bone, brain, heart, intestine, kidney, liver and lung) of mice after they were treated with 100 mg/kg of MK256 for 21 days (q.d, oral) (Figure 8). […] In summary, MK256 offered a desirable solubility, permeability, hepatocyte stability, toxicology, and pharmacokinetics/pharmacodynamics (PK/PD) profile.
Figure 8 Evaluation of the toxicity of MK256 in vivo. Histological data (H&E staining) obtained in the major organs (bone, brain, heart, intestine, kidney, liver, and lung) of the mice treated with MK256 (100 mg/kg, q.d., oral) for 21 days.

A further data set is described as follows: In vivo mouse PK study. The arrangement: species or system mice. As to conditions: plasma. The procedure:
Mice were dosed with either 1 mg/ml (IV) at a dose of 3 mg/kg or 3 mg/ml (PO) at a dose of 30 mg/kg in 40% PEG400 + 60% (30% Solutol) (final pH ~ 7). Blood samples were drawn at 5 mins, 15 mins, 30 mins, 1 hr, 2 hrs, 4 hrs, 8 hrs, and 24 hs from mice dosed with the IV route and at 1 hr, 4 hrs, 8 hrs and 24 hrs from mice dosed orally. An aliquot of 30 μL of plasma was extracted with 100 μL of 5:95 methanol:acetonitrile containing internal standard (Verapamil). The mixture was vortexed on a shaker for 15 minutes and subsequently centrifuged at 4000 rpm for 15 minutes. An aliquot of 70 μL of the supernatant was mixed with 70 μL water with 0.1% formic acid for the injection to the LC/MS/MS. Calibration standards were prepared by spiking MK256 into the blank mouse plasma. All samples are analyzed on LC/MS/MS using an AB Sciex API 4000 instrument, coupled to a Shimadzu LC-20AD LC Pump system.

The nature of data set [2]: Hepatocyte stability assay. It counts as in vitro ADME, Human. On the procedure: Human LiverPoolTM 20-donor, dog and mouse cryopreserved hepatocytes were obtained from BioreclamationIVT. Cryopreserved hepatocytes were removed from the liquid nitrogen tank and thawed in a 37°C water bath. As soon as the cells pulled away from the vial wall, they were decanted into 48 ml of warm HT medium. Cells were centrifuged for four minutes at 420 rpm (50 g). After the supernatant was removed, the pellet was re-suspended in warm DMEM medium. Cell density was counted by a hemacytometer. The assay was carried out in 96-well microtiter plates. MK256 was incubated for 0, 60, 120, and 180 minutes at 37°C with hepatocytes. Reaction mixtures (50 μL) contained a final concentration of 1 μM MK256, 0.5 million cells/mL hepatocytes in the DMEM medium. At each time point (for example, 0, 1, 2, and 3 hrs), 200 μL of quench solution (100% acetonitrile with 0.1% formic acid) with internal standard were transferred to each well. […] All samples were analyzed on LC/MS/MS using an AB Sciex API 4000 instrument, coupled to a Shimadzu LC-20AD LC Pump system. […] The extent of metabolism was calculated as the disappearance of the test compound, compared to the 0-min control reaction incubations. Initial rates were calculated for the compound concentration and used to determine t1/2 values and subsequently, the intrinsic clearance, CLint = (0.693)(1/t1/2 (min))(mL incubation/million cells).

Data set [3] concerns CCL2 mRNA in MOLM-14 cells. In words: Real-time RT-PCR of CCL2 mRNA. It counts as cell-based. The procedure: (§2) Total RNA from the various cell lines was isolated using the RNeasy extraction method (Qiagen, Valencia, CA, USA). First-strand cDNA was synthesized from total RNA by iScript cDNA synthesis (Bio-Rad, Hercules, CA, USA) according to the manufacturer’s instructions. Taqman RT–PCR analysis was performed on cDNA in a 384-well plate, using a Prism 7900HT Real-Time PCR System (Applied Biosystems, Foster City, CA, USA). Primers and Taqman probes were purchased from Applied Biosystems. The expression of target genes MCL1 (Hs03043899_m1, Thermo fisher) and CCL2 (Hs00234140_m1, Thermo fisher) in each sample was assayed in triplicate and normalized to human GUSB for mRNA expression analysis. An unpaired t test was used to calculate statistical significance.

A further data set concerns CCL2 mRNA in KG-1 cells. In words: Real-time RT-PCR of CCL2 mRNA. It counts as cell-based. On the procedure: as §2
[4] abbreviates: IV 3 mg/kg or PO 30 mg/kg study, footnote 2 not given.

Each structure is given as a SMILES string.

Chain of CDK8/cyclin C (P49336 whole entry): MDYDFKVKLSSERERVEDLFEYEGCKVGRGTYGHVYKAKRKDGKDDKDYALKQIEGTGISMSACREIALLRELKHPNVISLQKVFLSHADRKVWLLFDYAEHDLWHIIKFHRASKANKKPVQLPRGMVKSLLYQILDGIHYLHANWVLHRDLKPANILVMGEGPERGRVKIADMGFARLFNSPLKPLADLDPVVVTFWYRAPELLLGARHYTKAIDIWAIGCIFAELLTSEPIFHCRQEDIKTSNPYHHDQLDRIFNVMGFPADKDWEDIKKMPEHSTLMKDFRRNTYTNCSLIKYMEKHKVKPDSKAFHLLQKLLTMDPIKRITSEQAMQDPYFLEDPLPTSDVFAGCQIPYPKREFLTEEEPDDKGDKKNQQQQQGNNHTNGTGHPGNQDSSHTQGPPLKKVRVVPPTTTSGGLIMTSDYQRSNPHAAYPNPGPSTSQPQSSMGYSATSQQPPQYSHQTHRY
Chain of CDK8/cyclin C (P24863 whole entry partner): as the sequence (P24863 whole entry partner) above

As for `Nc1nccc2c(Br)cc3cc(C(=O)O)ccc3c12` [MK256], the figures for the IC50 on CDK8/cyclin C, on CDK9 (read-out: IC50 against CDK9) and at CDK19/cyclin C were 2.5 nM, 105 nM and 3.3 nM, respectively. The “fold reduction of activity against CDK9 in comparison to CDK8” value at CDK9 (CDK9 IC50 vs CDK8 IC50) is listed as “approximately 40 fold”. The “histology of major organs (bone, brain, heart, intestine, kidney, liver and lung)” value in data set [1] is listed as “did not cause visible pathological changes”. For the same compound, the AUC(0-t) in the data set “In vivo mouse PK study” (setting [4]) turned out to be 330 µM·h. The same compound displayed a Cmax in the data set “In vivo mouse PK study” (setting [4]) of 29 µM. Also, the half-life in the data set “In vivo mouse PK study” (setting [4]) was 3.6 h. This compound came in with a bioavailability in the data set “In vivo mouse PK study” (PO 30 mg/kg vs IV 3 mg/kg) of 59%. In the data set “In vivo mouse PK study” (intravenous, 3 mg/kg), this compound showed a clearance of 2.83 mL/min/kg. For the same compound, the Vd in the data set “In vivo mouse PK study” (intravenous, 3 mg/kg, read-out: Vss) stood at 0.49 L/kg. In addition, the “Clint (μL·min^−1·mg protein^−1)” value in data set [2] (Human hepatocytes) came to 16 μL·min^−1·mg protein^−1. For the same compound, the half-life at 1 µM in data set [2] (human, cryopreserved human hepatocytes (LiverPool 20-donor), read-out: T½) was found to be 1.48 h. Moreover, the “mRNA level of CCL2” value in data set [3] (1 uM) is “abolished”. Besides, the mrna remaining at 0.3 µM in data set [3] (Homo sapiens, MOLM-14, 300 nM, read-out: mRNA level of CCL2 (remaining)) is roughly 5%. The entries for the “expression of CCL2 downregulated to” value in the data set with CCL2 mRNA in KG-1 cells (300 nM) and with CCL2 mRNA in KG-1 cells (1 uM) were “approximately 50%” and roughly 40%, respectively.
